One test deals with T1, Alpha 1B (h) (Homo sapiens, UniProt P35368).
T1 sequence (P35368 1-520): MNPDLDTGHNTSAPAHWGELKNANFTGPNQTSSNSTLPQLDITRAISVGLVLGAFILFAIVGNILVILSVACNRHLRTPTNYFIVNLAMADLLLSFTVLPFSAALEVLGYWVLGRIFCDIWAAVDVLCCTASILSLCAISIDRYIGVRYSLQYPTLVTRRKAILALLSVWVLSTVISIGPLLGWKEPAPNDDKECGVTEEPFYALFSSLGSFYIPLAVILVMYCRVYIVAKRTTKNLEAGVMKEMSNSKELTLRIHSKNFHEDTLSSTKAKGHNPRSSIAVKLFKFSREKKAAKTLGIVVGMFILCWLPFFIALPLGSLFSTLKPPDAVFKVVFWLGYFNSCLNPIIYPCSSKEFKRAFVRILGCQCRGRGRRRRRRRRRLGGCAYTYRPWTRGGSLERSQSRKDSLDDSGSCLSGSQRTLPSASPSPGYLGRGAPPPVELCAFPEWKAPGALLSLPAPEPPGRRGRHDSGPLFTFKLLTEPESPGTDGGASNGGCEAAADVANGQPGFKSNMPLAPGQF
The test can be described thus: Alpha 1B (h) binding assay. Particulars: Table 7A; unit inferred. The protocol:
(§1) Binding assays were performed using various sleep-inducing agents and derivatives selected from those listed in Table 1 in competitive binding assays with known standards for the H1 histamine receptor, and the M1, M2, and M3 muscarinic receptors, alpha 1 and alpha 2 receptors, D1 and D2 receptors, 5HT2a, 5HT2b, 5HT2c, 5HT2c, and 5HT7 receptors.

The target of a further test is 5HT2a (h R) (Homo sapiens, UniProt P28223). Nature of the test: 5HT2a (h R) binding assay. The conditions noted are these: Table 7B; unit inferred. The protocol: as §1
In vitro binding assays are used to determine 5HT2a binding. These binding assays measure the ability of benzisoxazole analogs to displace known standards from the 5HT2a, 5HT2b, 5HT2c, and 5HT7. A decrease in the binding of the compounds to the M1-M3 receptors, relative to the binding of the compound to the 5HT2a receptor, is an indication of the greater specificity of the compound for the 5HT2a receptor over the muscarinic receptor. […] 5HT2a binding is determined as described for example in British Journal of Pharmacology (1995) 115, 622-628.

These results are taken from patent US7807828B2, “Olanzapine analogs and methods of use thereof” (Hypnion, Inc., priority 2005, dated 2010).

Chain of 5HT2a (h R) (P28223 whole entry): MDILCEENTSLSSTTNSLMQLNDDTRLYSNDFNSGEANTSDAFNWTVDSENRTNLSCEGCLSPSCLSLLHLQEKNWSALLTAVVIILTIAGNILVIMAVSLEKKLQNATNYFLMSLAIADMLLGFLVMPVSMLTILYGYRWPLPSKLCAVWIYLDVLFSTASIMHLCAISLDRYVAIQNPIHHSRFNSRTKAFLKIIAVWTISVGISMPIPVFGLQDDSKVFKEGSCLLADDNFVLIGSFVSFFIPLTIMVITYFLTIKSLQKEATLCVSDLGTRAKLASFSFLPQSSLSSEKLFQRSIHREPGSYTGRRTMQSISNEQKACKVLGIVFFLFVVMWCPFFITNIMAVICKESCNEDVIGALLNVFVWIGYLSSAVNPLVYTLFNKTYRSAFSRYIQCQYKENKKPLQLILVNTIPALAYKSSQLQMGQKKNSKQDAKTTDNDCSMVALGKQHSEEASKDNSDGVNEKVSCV

For `Cc1cc2c(s1)Nc1ccccc1N=C2N1CCN(CC(C)(C)C(=O)O)CC1` [Compound 46], the inhibition constant Ki (usually the equilibrium dissociation constant of an inhibitor or competing ligand from its target) on Alpha 1B (h) was 2100 nM; at 5HT2a (h R), 200 nM.
